Assay results: patent US9695200B2, “Heterocyclic ITK inhibitors for treating inflammation and cancer” (Confluence Life Sciences, Inc., priority 2015, dated 2017)

test system: phospho-PLCγ1 in Jurkat cells; assay: ITK target modulation PLC-γ assay (phospho-PLCγ1, αCD3-stimulated Jurkat cells); format: cell-based, human; settings: Homo sapiens, 1 hour compound incubation, αCD3 Dynabeads stimulation 8 minutes, MSD phospho-PLCγ1, read-out: PLC-γ Inhibition IC50
Description: Jurkat cells, an immortalized human T-lymphocyte cell line, were maintained in RPMI media, 10% FBS, 1% pen/strep/glutamine (growth media). Cells were plated in growth media plus 50 μM β-mercaptoethanol at 400,000 cells per well of a 96 well plate.
Compounds were serially diluted into DMSO, and then into media to concentrations 10× that of the final assay concentration. Compounds were then added to the cells with the final assay DMSO concentration being 0.1%. Cells were incubated for 1 hour at 37° C.
Following compound incubation, αCD3 Dynabeads were added at 1 bead/cell to each assay well and incubated at 37° C. for 7 minutes. Unstimulated control wells received media only. The plate was then placed on a 96-well magnetic plate for an additional 60 seconds (total assay stimulation time equals 8 minutes). The plate was then dumped and gently patted dry on a paper towel. 50 μl of complete Meso Scale Discovery (MSD) Lysis buffer was then added to each well. Samples were assayed for phospho-PLCγ1 using Meso Scale Discovery technology.
The assay stimulation time has been optimized for detection of Itk kinase-mediated phosphorylation of PLCγ1. The timing and detection reagents for this assay could be adjusted to capture phosphorylation events upstream (e.g., phospho-ZAP70) or downstream of the Itk/PLCγ1 node, provided the appropriate phospho-specific antibodies are available for building of an MSD assay.

Row | SMILES | IC50
1 | C=CC(=O)Nc1cccc(-c2cnc3[nH]cc(-c4cc(C)cc(OC)n4)c3c2)c1 [Example 52, N-(3-(3-(6-methoxy-4-methylpyridin-2-yl)-1H-pyrrolo[2,3-b]pyridin-5-yl)phenyl)acryl-amide] | > 5 µM
2 | C=CC(=O)Nc1cccc(-c2cnc3[nH]cc(-c4cccc5ccccc45)c3c2)c1 [Example 53, N-(3-(3-(naphthalen-1-yl)-1H-pyrrolo[2,3-b]pyridin-5-yl)phenyl)acryl-amide] | > 5 µM
3 | C=CC(=O)Nc1cccc(-c2cnc3[nH]cc(-c4cccc5cnccc45)c3c2)c1 [Example 55, N-(3-(3-(isoquinolin-5-yl)-1H-pyrrolo[2,3-b]pyridin-5-yl)phenyl)acryl-amide] | > 5 µM
4 | COc1cc(/C=C(\C#N)C(N)=O)cc(-c2cnc3[nH]cc(-c4ccnc(OC)c4)c3c2)c1 [Example 60, (E)-2-cyano-3-(3-methoxy-5-(3-(2-methoxypyridin-4-yl)-1H-pyrrolo[2,3-b]pyridin-5-yl)phenyl)acryl-amide] | > 5 µM
5 | N#C/C(=C\c1cccc(-c2cnc3[nH]cc(-c4ccc(F)nc4)c3c2)c1)C(N)=O [Example 63, (E)-2-cyano-3-(3-(3-(6-fluoropyridin-3-yl)-1H-pyrrolo[2,3-b]pyridin-5-yl)phenyl)acryl-amide] | > 5 µM
6 | COC/C=C/C(=O)Nc1cccc(-c2cnc3[nH]cc(-c4ccnc(OC)c4)c3c2)c1 [Example 65, (E)-4-methoxy-N-(3-(3-(2-methoxypyridin-4-yl)-1H-pyrrolo[2,3-b]pyridin-5-yl)phenyl)but-2-enamide] | > 5 µM
7 | C=C(C)C(=O)Nc1cc(-c2cnc3[nH]cc(-c4ccnc(OC)c4)c3c2)cc(-c2cnn(C)c2)n1 [Example 70, N-(4-(3-(2-methoxypyridin-4-yl)-1H-pyrrolo[2,3-b]pyridin-5-yl)-6-(1-methyl-1H-pyrazol-4-yl)pyridin-2-yl)methacryl-amide] | > 5 µM
8 | C=CC(=O)Nc1cccc(-c2cnc3[nH]cc(-c4cccc5[nH]ccc45)c3c2)c1 [Example 71, N-(3-(3-(1H-indol-4-yl)-1H-pyrrolo[2,3-b]pyridin-5-yl)phenyl)acryl-amide] | 1 to 5 µM
9 | C=CC(=O)Nc1cncc(-c2cnc3[nH]cc(-c4cn(C)c(=O)c5[nH]ccc45)c3c2)c1 [Example 73, N-(5-(3-(6-methyl-7-oxo-6,7-dihydro-1H-pyrrolo[2,3-c]pyridin-4-yl)-1H-pyrrolo[2,3-b]pyridin-5-yl)pyridin-3-yl)acrylamide] | > 5 µM
10 | N#C/C(=C\c1cccc(-c2cnc3[nH]cc(-c4ccncn4)c3c2)c1)C(N)=O [Example 75, (E)-2-cyano-3-(3-(3-(pyrimidin-4-yl)-1H-pyrrolo[2,3-b]pyridin-5-yl)phenyl)acryl-amide] | > 5 µM
11 | C=CC(=O)Nc1cccc(-c2cnc3[nH]cc(-c4cncc5[nH]ccc45)c3c2)c1 [Example 77, N-(3-(3-(1H-pyrrolo[2,3-c]pyridin-4-yl)-1H-pyrrolo[2,3-b]pyridin-5-yl)phenyl)acryl-amide] | > 5 µM
12 | C=CC(=O)Nc1cccc(-c2cnc3[nH]cc(-c4cc(OC)ncc4C)c3c2)c1 [Example 79, N-(3-(3-(2-methoxy-5-methylpyridin-4-yl)-1H-pyrrolo[2,3-b]pyridin-5-yl)phenyl)acryl-amide] | > 5 µM
13 | C=CC(=O)Nc1cccc(-c2cnc3[nH]cc(-c4cccc5occc45)c3c2)c1 [Example 82, N-(3-(3-(benzofuran-4-yl)-1H-pyrrolo[2,3-b]pyridin-5-yl)phenyl)acryl-amide] | > 5 µM
14 | C=CC(=O)Nc1cc(-c2cnc3[nH]cc(-c4ccnc(OC)c4)c3c2)cc(C(O)(CC)CC)c1 [Example 83, N-(3-(3-hydroxypentan-3-yl)-5-(3-(2-methoxypyridin-4-yl)-1H-pyrrolo[2,3-b]pyridin-5-yl)phenyl)acryl-amide] | 1 to 5 µM
15 | C=CC(=O)Nc1cccc(-c2cnc3[nH]cc(-c4cn(CC5CC5)c(=O)c5[nH]ccc45)c3c2)c1 [Example 88, N-(3-(3-(6-(cyclopropyl-methyl)-7-oxo-6,7-dihydro-1H-pyrrolo[2,3-c]pyridin-4-yl)-1H-pyrrolo[2,3-b]pyridin-5-yl)phenyl)acryl-amide] | 1 to 5 µM
16 | C=CC(=O)Nc1cccc(-c2cnc3[nH]cc(-c4cccc(C#N)c4)c3c2)c1 [Example 92, N-(3-(3-(3-cyanophenyl)-1H-pyrrolo[2,3-b]pyridin-5-yl)phenyl)acryl-amide] | 1 to 5 µM

Results, then the compound that gave them:

Row | IC50 | SMILES
17 | 1 to 5 µM | C=CC(=O)Nc1cccc(-c2cnc3[nH]cc(-c4ccc(NC)nc4)c3c2)c1 [Example 48, N-(3-(3-(6-(methylamino)pyridin-3-yl)-1H-pyrrolo[2,3-b]pyridin-5-yl)phenyl)acryl-amide]
18 | < 1 µM | C=CC(=O)Nc1cccc(-c2cnc3[nH]cc(-c4ccncn4)c3c2)c1 [Example 49, N-(3-(3-(pyrimidin-4-yl)-1H-pyrrolo[2,3-b]pyridin-5-yl)phenyl)acryl-amide]
19 | < 1 µM | C=CC(=O)Nc1cccc(-c2cnc3[nH]cc(-c4ccc(=O)n(CC5CC5)c4)c3c2)c1 [Example 50, N-(3-(3-(1-(cyclopropyl-methyl)-6-oxo-1,6-dihydropyridin-3-yl)-1H-pyrrolo[2,3-b]pyridin-5-yl)phenyl)acryl-amide]
20 | 1 to 5 µM | C=CC(=O)Nc1cccc(-c2cnc3[nH]cc(-c4cccc(OC)c4)c3c2)c1 [Example 51, N-(3-(3-(3-methoxyphenyl)-1H-pyrrolo[2,3-b]pyridin-5-yl)phenyl)acryl-amide]
21 | 1 to 5 µM | C=CC(=O)Nc1cccc(-c2cnc3[nH]cc(-c4cccc5ncccc45)c3c2)c1 [Example 54, N-(3-(3-(quinolin-5-yl)-1H-pyrrolo[2,3-b]pyridin-5-yl)phenyl)acryl-amide]
22 | 1 to 5 µM | C=CC(=O)Nc1cccc(-c2cnc3[nH]cc(-c4cc(NC)ncn4)c3c2)c1 [Example 56, N-(3-(3-(6-(methylamino)pyrimidin-4-yl)-1H-pyrrolo[2,3-b]pyridin-5-yl)phenyl)acryl-amide]
23 | < 1 µM | C=CC(=O)Nc1cc(-c2cnc3[nH]cc(-c4ccc(F)nc4)c3c2)cc(C(F)(F)F)c1 [Example 57, N-(3-(3-(6-fluoropyridin-3-yl)-1H-pyrrolo[2,3-b]pyridin-5-yl)-5-(trifluoromethyl)phenyl)acryl-amide]
24 | 1 to 5 µM | C=CC(=O)Nc1cc(-c2cnc3[nH]cc(-c4ccc(OC)nc4)c3c2)cc(C(F)(F)F)c1 [Example 58, N-(3-(3-(6-methoxypyridin-3-yl)-1H-pyrrolo[2,3-b]pyridin-5-yl)-5-(trifluoromethyl)phenyl)acryl-amide]
25 | < 1 µM | C=CC(=O)Nc1cc(-c2cnc3[nH]cc(-c4cccnc4)c3c2)cc(C(F)(F)F)c1 [Example 59, N-(3-(3-(pyridin-3-yl)-1H-pyrrolo[2,3-b]pyridin-5-yl)-5-(trifluoromethyl)phenyl)acryl-amide]
26 | < 1 µM | C=CC(=O)Nc1cc(-c2cnc3[nH]cc(-c4ccnc(F)c4)c3c2)cc(C(F)(F)F)c1 [Example 61, N-(3-(3-(2-fluoropyridin-4-yl)-1H-pyrrolo[2,3-b]pyridin-5-yl)-5-(trifluoromethyl)phenyl)acryl-amide]
27 | < 1 µM | C=CC(=O)Nc1cccc(-c2cnc3[nH]cc(-c4ccnc5[nH]ccc45)c3c2)c1 [Example 62, N-(3-(1H,1′H-[3,4′-bipyrrolo[2,3-b]pyridin]-5-yl)phenyl)acryl-amide]
28 | 1 to 5 µM | C=CC(=O)Nc1cccc(-c2cnc3[nH]cc(-c4ccnc5ccccc45)c3c2)c1 [Example 64, N-(3-(3-(quinolin-4-yl)-1H-pyrrolo[2,3-b]pyridin-5-yl)phenyl)acryl-amide]
29 | 1 to 5 µM | C=CC(=O)Nc1cccc(-c2cnc3[nH]cc(-c4ccc(=O)n(CC(C)(C)O)c4)c3c2)c1 [Example 66, N-(3-(3-(1-(2-hydroxy-2-methylpropyl)-6-oxo-1,6-dihydropyridin-3-yl)-1H-pyrrolo[2,3-b]pyridin-5-yl)phenyl)acryl-amide]
30 | < 1 µM | C=CC(=O)Nc1cc(-c2cnc3[nH]cc(-c4ccnc(OC)c4)c3c2)cc(-c2cnn(C)c2)c1 [Example 80, N-(3-(3-(2-methoxypyridin-4-yl)-1H-pyrrolo[2,3-b]pyridin-5-yl)-5-(1-methyl-1H-pyrazol-4-yl)phenyl)acryl-amide]
31 | < 1 µM | C=CC(=O)Nc1cccc(-c2cnc3[nH]cc(-c4ccnc(NC)n4)c3c2)c1 [Example 91, N-(3-(3-(2-(methylamino)pyrimidin-4-yl)-1H-pyrrolo[2,3-b]pyridin-5-yl)phenyl)acryl-amide]
